Assay results taken from patent publication US9096500B2, “Acyl sulfonamide compounds” (Pfizer Limited, priority 2010, dated 2015).
Structures can show the parent of a compound that is named as a salt.

Target: T1, Nav1.7 (or SCN9A) channel (Homo sapiens, UniProt Q15858)
T1 construct: expressed in transfected cells
Assay: Nav1.7 (hSCN9A) electrophysiology assay, PatchXpress platform
Type: cell-based
Conditions: estimated IC50 from single point electrophysiology data, HEK cells stably expressing hSCN9A, held at V1/2 of inactivation, read-out: Nav1.7 EIC50
Protocol: The ability of the compounds of formula (I) to block the Nav1.7 (or SCN9A) channel were measured using the assay described below.
Human Embryonic Kidney (HEK) cells were transfected with an hSCN9A construct using lipofectamine reagent (Invitrogen), using standard techniques. Cells stably expressing the hSCN9A constructs were identified by their resistance to G-418 (400 μg/ml). Clones were screened for expression using the whole-cell voltage-clamp technique.
HEK cells stably transfected with hSCN9A were maintained in DMEM medium supplemented with 10% heat-inactivated fetal bovine serum and 400 μg/ml G-418 in an incubator at 37° C. with a humidified atmosphere of 10% CO2. For HTS, cells were harvested from flasks by trypsinization and replated in an appropriate multi-well plate (typically 96 or 384 wells/plate) such that confluence would be achieved within 24 hours of plating. For electrophysiological studies, cells were removed from the culture flask by brief trypsinization and re-plated at low density onto glass cover slips. Cells were typically used for electrophysiological experiments within 24 to 72 hours after plating.
Cover slips containing HEK cells expressing hSCN9A were placed in a bath on the stage of an inverted microscope and perfused (approximately 1 ml/minutes) with extracellular solution of the following composition: 138 mM NaCl, 2 mM CaCl2, 5.4 mM KCl, 1 mM MgCl2, 10 mM glucose, and 10 mM HEPES, pH 7.4, with NaOH. […] The osmolarity of the extracellular and intracellular solutions was 300 mOsm/kg and 295 mOsm/kg, respectively. All recordings were made at room temperature (22-24° C.) using AXOPATCH 200B amplifiers and PCLAMP software (Axon Instruments, Burlingame, Calif.).
hSCN9A currents in HEK cells were measured using the whole-cell configuration of the patch-clamp technique (Hamill et al., 1981). Uncompensated series resistance was typically 2 to 5 mega ohms and >85% series resistance compensation was routinely achieved. […] Current records were acquired at 20 to 50 KHz and filtered at 5 to 10 KHz.
HEK cells stably transfected with hSCN9A were viewed under Hoffman contrast optics and placed in front of an array of flow pipes emitting either control or compound-containing extracellular solutions. All compounds were dissolved in dimethyl sulfoxide to make 10 mM stock solutions, which were then diluted into extracellular solution to attain the final concentrations desired. […] The voltage-dependence of inactivation was determined by applying a series of depolarizing prepulses (8 sec long in 10 mV increments) from a negative holding potential. The voltage was then immediately stepped to 0 mV to assess the magnitude of the sodium current. Currents elicited at 0 mV were plotted as a function of prepulse potential to allow estimation of the voltage at which 50% of the channels were inactivated (midpoint of inactivation or V1/2). Compounds were tested for their ability to inhibit hSCN9A sodium channels by activating the channel with a 20 msec voltage step to 0 mV following an 8 second conditioning prepulse to the empirically determined V1/2. Compound effect (% inhibition) was determined by difference in current amplitude before and after application of test compounds. […] Inhibition values <20% and >80% were excluded from the calculation.
Electrophysiological assays were conducted with PatchXpress 7000 hardware and associated software (Molecular Devices Corp). All assay buffers and solutions were identical to those used in conventional whole-cell voltage clamp experiments described above. hSCN9A cells were grown as above to 50%-80% confluency and harvested by trypsinization. Trypsinized cells were washed and resuspended in extracellular buffer at a concentration of 1×10^6 cells/ml. The onboard liquid handling facility of the PatchXpress was used for dispensing cells and application of test compounds.

T1 sequence (Q15858 whole entry): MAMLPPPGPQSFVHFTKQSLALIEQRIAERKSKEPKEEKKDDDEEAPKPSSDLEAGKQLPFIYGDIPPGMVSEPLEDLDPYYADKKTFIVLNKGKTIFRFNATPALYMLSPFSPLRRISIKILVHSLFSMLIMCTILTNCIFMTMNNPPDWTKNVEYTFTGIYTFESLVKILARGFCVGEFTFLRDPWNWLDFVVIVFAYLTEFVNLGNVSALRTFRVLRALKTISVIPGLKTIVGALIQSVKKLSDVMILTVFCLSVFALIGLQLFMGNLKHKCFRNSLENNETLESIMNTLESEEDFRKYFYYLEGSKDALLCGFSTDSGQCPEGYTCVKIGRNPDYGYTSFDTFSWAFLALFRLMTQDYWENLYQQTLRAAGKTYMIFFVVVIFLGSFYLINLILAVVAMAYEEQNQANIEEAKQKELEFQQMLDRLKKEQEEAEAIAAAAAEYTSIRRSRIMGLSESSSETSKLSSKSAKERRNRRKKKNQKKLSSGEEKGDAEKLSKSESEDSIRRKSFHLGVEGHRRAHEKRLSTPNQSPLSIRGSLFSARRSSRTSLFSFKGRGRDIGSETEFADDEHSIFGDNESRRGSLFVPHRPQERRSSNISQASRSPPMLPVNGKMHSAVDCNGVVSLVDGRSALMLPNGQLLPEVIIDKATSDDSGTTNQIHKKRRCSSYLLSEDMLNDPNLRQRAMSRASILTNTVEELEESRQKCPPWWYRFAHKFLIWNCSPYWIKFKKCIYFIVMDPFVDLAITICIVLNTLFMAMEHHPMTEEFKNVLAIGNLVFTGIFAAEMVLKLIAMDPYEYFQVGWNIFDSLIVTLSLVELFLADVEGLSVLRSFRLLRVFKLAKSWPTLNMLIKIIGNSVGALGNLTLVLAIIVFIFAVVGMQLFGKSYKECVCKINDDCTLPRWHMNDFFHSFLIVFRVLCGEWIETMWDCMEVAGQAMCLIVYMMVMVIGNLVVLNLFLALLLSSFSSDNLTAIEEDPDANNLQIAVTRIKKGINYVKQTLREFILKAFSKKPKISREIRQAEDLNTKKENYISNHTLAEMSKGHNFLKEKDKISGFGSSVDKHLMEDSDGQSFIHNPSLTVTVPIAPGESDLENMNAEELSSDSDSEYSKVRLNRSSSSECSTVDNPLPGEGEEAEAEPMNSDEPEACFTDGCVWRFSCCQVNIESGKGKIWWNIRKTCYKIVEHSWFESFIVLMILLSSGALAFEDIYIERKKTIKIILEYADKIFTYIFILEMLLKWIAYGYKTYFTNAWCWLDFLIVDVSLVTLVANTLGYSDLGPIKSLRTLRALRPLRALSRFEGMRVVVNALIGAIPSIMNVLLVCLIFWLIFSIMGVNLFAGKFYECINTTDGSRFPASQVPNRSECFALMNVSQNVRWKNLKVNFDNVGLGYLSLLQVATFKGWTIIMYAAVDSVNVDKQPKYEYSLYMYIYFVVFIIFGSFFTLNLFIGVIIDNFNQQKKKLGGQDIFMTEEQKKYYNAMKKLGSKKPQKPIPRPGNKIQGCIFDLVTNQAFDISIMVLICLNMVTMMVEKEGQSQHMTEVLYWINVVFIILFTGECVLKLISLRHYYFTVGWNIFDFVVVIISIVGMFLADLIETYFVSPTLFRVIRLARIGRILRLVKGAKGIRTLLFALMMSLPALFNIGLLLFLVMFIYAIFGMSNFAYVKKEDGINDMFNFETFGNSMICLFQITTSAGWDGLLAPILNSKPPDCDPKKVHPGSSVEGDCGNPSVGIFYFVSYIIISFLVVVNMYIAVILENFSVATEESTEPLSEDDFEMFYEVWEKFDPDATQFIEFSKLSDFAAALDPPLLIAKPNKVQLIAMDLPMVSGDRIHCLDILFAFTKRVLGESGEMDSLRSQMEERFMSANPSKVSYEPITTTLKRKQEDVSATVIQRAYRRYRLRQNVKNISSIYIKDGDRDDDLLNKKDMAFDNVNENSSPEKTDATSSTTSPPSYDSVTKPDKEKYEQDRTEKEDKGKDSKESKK

SMILES | IC50
CS(=O)(=O)NC(=O)c1cc(F)c(COc2cccc(N3CCOCC3)c2)cc1F [Example 136, 2,5-difluoro-N-(methylsulfonyl)-4-[(3-morpholin-4-ylphenoxy)methyl]benzamide] | > 3000 nM
CS(=O)(=O)NC(=O)c1cc(F)c(OCc2cccc(C(F)(F)F)c2)cc1F [Example 192, 2,5-difluoro-N-(methylsulfonyl)-4-{[3-(trifluoromethyl)benzyl]oxy}benzamide] | 3100 nM
CS(=O)(=O)NC(=O)c1cc(F)c(COc2ccc(C#N)cc2Cl)cc1F [Example 44, 4-[(2-Chloro-4-cyanophenoxy)methyl]-2,5-difluoro-N-(methylsulfonyl)benzamide] | 2000 nM
CS(=O)(=O)NC(=O)c1cc(F)c(COc2ccc(Cl)c(C(F)(F)F)c2)cc1F [Example 54, 4-((4-Chloro-3-(trifluoromethyl)phenoxy)methyl)-2,5-difluoro-N-(methylsulfonyl)benzamide] | 130 nM
CS(=O)(=O)NC(=O)c1cc(F)c(COc2cccc(F)c2F)cc1F [Example 111, 4-[(2,3-difluorophenoxy)methyl]-2,5-difluoro-N-(methylsulfonyl)benzamide] | > 1000 nM
CS(=O)(=O)NC(=O)c1cc(F)c(COc2ccc(F)c(Cl)c2C#N)cc1F [Example 163, 4-[(3-chloro-2-cyano-4-fluorophenoxy)methyl]-2,5-difluoro-N-(methylsulfonyl)benzamide] | > 1000 nM
CS(=O)(=O)NC(=O)c1cc(F)c(COc2c(F)ccc(F)c2F)cc1F [Example 140, 2,5-difluoro-N-(methylsulfonyl)-4-[(2,3,6-trifluorophenoxy)methyl]benzamide] | 2200 nM
Cc1nc(-c2cccc(OCc3cc(F)c(C(=O)NS(C)(=O)=O)cc3F)c2)no1 [Example 166, 2,5-difluoro-4-{[3-(5-methyl-1,2,4-oxadiazol-3-yl)phenoxy]methyl}-N-(methylsulfonyl)benzamide] | 1300 nM
CC(C)c1cccc(OCc2cc(F)c(C(=O)NS(C)(=O)=O)cc2F)c1 [Example 107, 2,5-difluoro-4-[(3-isopropylphenoxy)methyl]-N-(methylsulfonyl)benzamide] | 330 nM
CS(=O)(=O)NC(=O)c1cc(F)c(COc2ccc(F)c(F)c2Cl)cc1F [Example 129, 4-[(2-chloro-3,4-difluorophenoxy)methyl]-2,5-difluoro-N-(methylsulfonyl)benzamide] | 1900 nM
Cc1c(OCc2cc(F)c(C(=O)NS(C)(=O)=O)cc2F)ccc(F)c1F [Example 167, 4-[(3,4-difluoro-2-methylphenoxy)methyl]-2,5-difluoro-N-(methylsulfonyl)benzamide] | 2600 nM
COc1ccc(OC)c(COc2cc(F)c(C(=O)NS(C)(=O)=O)cc2F)c1 [Example 202, 4-[(2,5-dimethoxybenzyl)oxy]-2,5-difluoro-N-(methylsulfonyl)benzamide] | 11000 nM
COc1ccc(OCc2cc(F)c(C(=O)NS(C)(=O)=O)cc2F)c(C#N)c1 [Example 146, 4-[(2-cyano-4-methoxyphenoxy)methyl]-2,5-difluoro-N-(methylsulfonyl)benzamide] | > 1000 nM
COc1ccccc1OCc1cc(F)c(C(=O)NS(C)(=O)=O)cc1F [Example 14, 2,5-Difluoro-4-((2-methoxyphenoxy)methyl)-N-(methylsulfonyl)benzamide] | 8100 nM
CS(=O)(=O)NC(=O)c1cc(F)c(OCc2ccccc2Cl)cc1F [Example 221, 4-[(2-chlorobenzyl)oxy]-2,5-difluoro-N-(methylsulfonyl)benzamide] | 1800 nM

The remaining lines, values ahead:

IC50 | SMILES
> 3000 nM | CS(=O)(=O)NC(=O)c1ccc(OCc2ccc(C#N)cc2)cc1 [Example 172, 4-[(4-cyanobenzyl)oxy]-N-(methylsulfonyl)benzamide]
9700 nM | CS(=O)(=O)NC(=O)c1ccc(OCc2cccc(Cl)c2)c(C#N)c1 [Example 74, 4-[(3-chlorobenzyl)oxy]-3-cyano-N-(methylsulfonyl)benzamide]
1400 nM | CS(=O)(=O)NC(=O)c1cc(F)c(COc2ccc(Cl)c(C#N)c2)cc1F [Example 47, 4-[(4-Chloro-3-cyanophenoxy)methyl]-2,5-difluoro-N-(methylsulfonyl)benzamide]
58 nM | CS(=O)(=O)NC(=O)c1ccc(COc2ccc(Cl)c(Cl)c2)cc1 [Example 28, 4-[(3,4-Dichlorophenoxy)methyl]-N-(methylsulfonyl)benzamide]
780 nM | CS(=O)(=O)NC(=O)c1ccc(COc2ccc(Cl)cc2Cl)cc1 [Example 24, 4-((2,4-Dichlorophenoxy)methyl)-N-(methylsulfonyl)benzamide Diethylamine salt]
> 3000 nM | COc1ccc(OCc2cc(F)c(C(=O)NS(C)(=O)=O)cc2F)cc1 [Example 164, 2,5-difluoro-4-[(4-methoxyphenoxy)methyl]-N-(methylsulfonyl)benzamide]
250 nM | CS(=O)(=O)NC(=O)c1ccc(OCc2cc(Cl)cc(Cl)c2)cc1 [Example 173, 4-[(3,5-dichlorobenzyl)oxy]-N-(methylsulfonyl)benzamide]
> 3000 nM | Cn1nccc1-c1cc(Cl)ccc1OCc1ccc(C(=O)NS(C)(=O)=O)cc1 [Example 38, 4-{[4-Chloro-2-(1-methyl-1H-pyrazol-5-yl)phenoxy]methyl}-N-(methylsulfonyl)benzamide diethylamine salt]
78 nM | CS(=O)(=O)NC(=O)c1ccc(COc2ccc(C(F)(F)F)cc2-c2ccnnc2)cc1 [Example 26, N-(methylsulfonyl)-4-{[2-pyridazin-4-yl-4-(trifluoromethyl)phenoxy]methyl}benzamide]
> 1000 nM | CS(=O)(=O)NC(=O)c1ccc(OCc2ccc(F)cc2)cc1 [Example 176, 4-[(4-fluorobenzyl)oxy]-N-(methylsulfonyl)benzamide]
14 nM | CS(=O)(=O)NC(=O)c1cc(Cl)c(OCc2ccc(Cl)c(C(F)(F)F)c2)cc1F [Example 59, 5-Chloro-4-(4-chloro-3-(trifluoromethyl)benzyloxy)-2-fluoro-N-(methylsulfonyl)benzamide]
> 3000 nM | Cn1nccc1-c1ccc(OCc2ccc(C(=O)NS(C)(=O)=O)cc2)cc1 [Example 37, 4-{[4-(1-Methyl-1H-pyrazol-5-yl)phenoxy]methyl}-N-(methylsulfonyl)benzamide diethylamine salt]
11000 nM | CS(=O)(=O)NC(=O)c1cc(F)c(COc2cccc(C#N)c2)cc1F [Example 154, 4-[(3-cyanophenoxy)methyl]-2,5-difluoro-N-(methylsulfonyl)benzamide]
2100 nM | COc1ccc(OCc2cc(F)c(C(=O)NS(C)(=O)=O)cc2F)c(Cl)c1 [Example 157, 4-[(2-chloro-4-methoxyphenoxy)methyl]-2,5-difluoro-N-(methylsulfonyl)benzamide]
80 nM | CS(=O)(=O)NC(=O)c1ccc(COc2ccc(C(F)(F)F)c(Cl)c2)cc1 [Example 65, 4-{[3-Chloro-4-(trifluoromethyl)phenoxy]methyl}-N-(methylsulfonyl)benzamide]
930 nM | CS(=O)(=O)NC(=O)c1ccc(COc2ccc(Cl)cc2)cc1 [Example 18, 4-((4-Chlorophenoxy)methyl)-N-(methylsulfonyl)benzamide Diethylamine salt]
> 300 nM | CS(=O)(=O)NC(=O)c1cc(F)c(OCc2ccc(Cl)cc2)cc1F [Example 225, 4-[(4-chlorobenzyl)oxy]-2,5-difluoro-N-(methylsulfonyl)benzamide]
330 nM | CS(=O)(=O)NC(=O)c1cc(F)c(COc2ccc(C(F)(F)F)cc2)cc1F [Example 141, 2,5-difluoro-N-(methylsulfonyl)-4-{[4-(trifluoromethyl)phenoxy]methyl}benzamide]
